The values that follow come from patent publication EP0785211A1, “New substituted 19-nor-pregnane derivatives” (LABORATOIRE THERAMEX, priority 1996, dated 1997).

By IC50 is commonly meant the point on the concentration scale where inhibition reaches its midpoint.

Data set [1] has as its target T1, human T47-D cell progesterone receptor (Homo sapiens, UniProt P06401).
T1 construct: Human PR are readily available in high amounts from the T47-D cell line in culture; endogenous in cells; host or cells: T47-D human breast cancer cell line
T1 sequence (P06401 1-933): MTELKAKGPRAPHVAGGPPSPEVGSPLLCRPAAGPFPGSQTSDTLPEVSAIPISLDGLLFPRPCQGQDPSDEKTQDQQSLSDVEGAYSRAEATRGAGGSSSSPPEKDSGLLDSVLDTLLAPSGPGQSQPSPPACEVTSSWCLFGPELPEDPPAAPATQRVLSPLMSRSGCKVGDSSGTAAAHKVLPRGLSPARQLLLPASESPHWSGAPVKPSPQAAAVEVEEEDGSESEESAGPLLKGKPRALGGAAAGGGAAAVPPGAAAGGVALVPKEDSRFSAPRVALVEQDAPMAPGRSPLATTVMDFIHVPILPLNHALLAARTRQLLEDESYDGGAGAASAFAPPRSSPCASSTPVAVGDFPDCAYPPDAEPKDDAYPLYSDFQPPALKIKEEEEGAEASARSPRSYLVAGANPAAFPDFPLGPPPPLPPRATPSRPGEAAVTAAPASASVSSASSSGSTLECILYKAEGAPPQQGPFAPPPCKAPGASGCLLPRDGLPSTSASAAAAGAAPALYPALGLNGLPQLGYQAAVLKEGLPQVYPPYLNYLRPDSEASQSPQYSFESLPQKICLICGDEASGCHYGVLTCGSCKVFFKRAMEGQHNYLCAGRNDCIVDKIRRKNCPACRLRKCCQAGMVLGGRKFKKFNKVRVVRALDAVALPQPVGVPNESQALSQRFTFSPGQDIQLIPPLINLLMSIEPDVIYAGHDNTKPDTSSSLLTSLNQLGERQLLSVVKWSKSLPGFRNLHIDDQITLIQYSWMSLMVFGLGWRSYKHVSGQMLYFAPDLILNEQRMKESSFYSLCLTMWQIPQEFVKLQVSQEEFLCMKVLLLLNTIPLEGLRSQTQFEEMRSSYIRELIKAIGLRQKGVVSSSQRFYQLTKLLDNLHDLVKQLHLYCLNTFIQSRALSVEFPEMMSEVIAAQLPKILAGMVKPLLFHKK
The data set can be described thus: Relative binding affinity to human T47-D cell progesterone receptor (competition against [3H]-ORG 2058). To be noted: for RBA: relative binding affinity, nomegestrol acetate as reference = 100%.
Protocol: Relative binding affinities (RBA) for the human T47-D cell PR are determined as previously described (J. Botella, et al., J. Steroid Biochem. Molec. Biol., 1994, 50 : 41-47) using [^3H]-ORG 2058 as the labelled specific ligand (G. Fleischmann et al., Biochim. Biophys. Acta, 1978, 540 : 500-517) and nomegestrol acetate as the non-radioactive reference progestin. Competitive incubations were performed against 2 nM of [^3H]-ORG 2058 for 3 hours at 4°C with six different concentrations of non-labelled steroid, chosen between 4 and 256 nM following a 1/2^n dilution scheme. Displacement curves were fitted for each experiment, and the concentration inhibiting 50% of the specific binding of [^3H]-ORG 2058 was calculated for each curve (IC50).

Data set [2] deals with uterus of estrogen-primed immature female rabbits. The data set can be described thus: Clauberg-McPhail test by oral administration (endometrial transformation, "dentelle"). The class given is in vivo, rabbit. The note with it: for Relative activity: relative to nomegestrol acetate = 100%; for ED50: total dose giving mean McPhail grade equal to 2, maximal administered dose 0.75 mg. From the text:
The progestative activity of the compounds of formula (I) can be evaluated in two specific experimental models : the affinity for the progesterone receptor (PR) in vitro, and the endometrial tranformation of the rabbit uterus in vivo.
One specific pharmacological test has been standardized in vivo for the detection and quantitation of pseudogestagenic activity since the mid-30's : it is based on the property of the uterus of estrogen-primed immature female rabbits to respond to very slight amounts of progestin by a typical endometrial transformation into a densely packed and interlaced epithelial network called "dentelle". The original test schedule, which includes 6 days of estrogen priming (total subcutaneous dose of 30 µg/rabbit of estradiol benzoate) followed by 5 days of progestative treatment, was designed as early as 1930 by C. Clauberg, Zentr. Gynäkol. 1930, 54 : 2757-2770. The semi-quantitative scale used to grade the intensity of the microscopical appearance of the "dentelle" was set up by M.K. McPhail, J. Physiol (London), 1934, 83, 145-156. This overall Clauberg-McPhail procedure has been extensively used to screen steroids for putative progestative activity in vivo and is still part of the basic hormonal profile of any new progestin such as norgestimate (A. Phillips et al., Contraception, 1987, 36, 181-192) or desogestrel (J. Van der Vies et al.,Arzneim. Forsch./Drug Res. 1983, 33, 231-236).
The progestative potency is inversely related to the dose needed to induce a half-maximal stimulation of the "dentelle", i.e. to record a mean McPhail grade equal to 2. This ED50 is deduced for the dose-response curve and expressed in total dose/rabbit/5 days. All compounds were tested for activity only following oral administration.

Data set [3] concerns immature castrated male rats. The data set is described as follows: Residual androgenic activity: hypertrophy of ventral prostate and seminal vesicles after 10 daily administrations. The class given is in vivo, rat. To be noted: for Seminal Vesicle / Ventral Prostate: mean ± s.e.m. of 8 animals; for androgenic potential (activity on the growth of male accessory sex organs): result in words, up to 20 mg/animal/day. The source says:
The residual androgenic potential is an important feature to evaluate for any new progestin, because it is highly predictive of androgenic side-effects in women. One pharmacological model of androgenic activity has been standardized to screen steroids or related compounds in immature castrated male rats, using the hypertrophy of the ventral prostate and seminal vesicles as the endpoint, following 10 daily administrations (R.I. Dorfman, in Methods in Hormone Research, volume 2, LONDON, Academic Press, 1962 : 275-313; A.G. Hilgar et D.J. Hummel, Androgenic and Myogenic Endocrine Bioassay Data, edited by the U.S. Department of Health, Education and Welfare, […].C., 1964).
Medroxyprogesterone acetate is a 6α-methylpregnene derivative which, besides its main progestative activity, is well-known for its weak androgenic properties (M. Tausk et J. de Visser, In International Encyclopedia of Pharmacology and Therapeutics, Section 48 : Progesterone, Progestational Drugs and Antifertility Agents, volume II, OXFORD, Pergamon Press, 1972 : 35-216); it was therefore chosen as a reference compound in the testing for residual androgenic activity of test examples according to the invention.
The compounds of examples 2 and 7 were tested for residual androgenic properties in the immature castrated male rat model by oral administration (PO), in comparison with medroxyprogesterone acetate, in two different experiments (ventral prostate and seminal vesical hypertrophy), as described above; testosterone was used as a standard androgenic agent by subcutaneous injection (SC).

[4] abbreviates: Table 3 experiment, SC, 0,05 mg/animal/day.
Where [5] appears, read: Table 4 experiment, SC, 0,05 mg/animal/day.

The structures appear in SMILES notation. Like-named read-outs stand apart in the source and are kept apart here. Marks after values point to notes of the source that are not given here.

Regarding `CC(=O)O[C@]1(C(C)=O)CC[C@H]2[C@@H]3C=C(C)C4=CC(=O)CC[C@@H]4[C@H]3CC[C@@]21C` [Nomegestrol acetate, reference compound], the IC50 in data set [1] (against 2 nM [3H]-ORG 2058, 3 hours at 4°C, mean ± s.e.m., read-out: IC50) came to 0.0164 ± 0.0013 µM. For the same compound, in data set [1], the RBA turned out to be 100%. For the same compound, in data set [2], the Relative activity worked out at 100% and the ED50 is reported as 0.132 ± 0.013^(a) (0.108/0.150/0.138) mg/rabbit/5 days.
`CCO[C@]1(C(C)=O)[C@H]2C[C@H]2[C@H]2[C@@H]3C=C(C)C4=CC(=O)CC[C@@H]4[C@H]3CC[C@@]21C` [Example 9, 17α-ethoxy-15β,16β-methylene-6-methyl-20-oxo-19-nor-pregna-4,6-diene]: in data set [1], the IC50 is 0.0323 ± 0.0053 µM and the RBA is on record as 51%.
In data set [1], `CC(=O)O[C@]1(C(C)=O)CC[C@H]2[C@@H]3[C@H](C)[C@H](C)C4=CC(=O)CC[C@@H]4[C@H]3CC[C@@]21C` [Example 11, 17α-acetoxy-6α,7α-dimethyl-3,20-dioxo-19-nor-pregna-4-ene] displayed an IC50 of 0.0255 ± 0.0053 µM and an RBA of 64%. Also, in data set [2], the Relative activity is 132% and the ED50 was determined as 0.100 mg/rabbit/5 days.
Take `C[C@]12CC[C@H]3[C@@H](CCC4=CC(=O)CC[C@@]43C)[C@@H]1CC[C@@H]2O` [Testosterone, reference compound]: in data set [3] (setting [4]), the “Seminal Vesicle” value was found to be 85.9 ± 6.8 mg and the “Ventral Prostate” value was 85.1 ± 5.9 mg. Further, in data set [3] (setting [5]), the “Seminal Vesicle” value is reported as 90.3 ± 6.3 mg and the “Ventral Prostate” value was 90.4 ± 4.4 mg.
Take `CC(=O)O[C@]1(C(C)=O)[C@H]2C[C@H]2[C@H]2[C@@H]3C[C@H](C)C4=CC(=O)CC[C@@H]4[C@H]3CC[C@@]21C` [Example 7, 17α-acetoxy-6α-methyl-15β,16β-methylene-3,20-dioxo-19-nor-pregna-4-ene]: in data set [1], the IC50 amounted to 0.0197 ± 0.003 µM and the RBA was 83%. Moreover, in data set [2], the Relative activity was determined as 54% and the ED50 worked out at 0.245 mg/rabbit/5 days. In addition, the “Ventral Prostate” value in data set [3] (Table 4 experiment, PO, 20 mg/animal/day, castrated controls 12.0 ± 0.9) is on record as 16.5 ± 0.9 mg. In addition, the “Seminal Vesicle” value in data set [3] (Table 4 experiment, PO, 20 mg/animal/day, castrated controls 12.3 ± 0.7) is given as 13.9 ± 0.8 ns mg. In addition, the “androgenic potential (activity on the growth of male accessory sex organs)” value in data set [3] (PO) is recorded as “very limited androgenic potential”.
For `CCO[C@]1(C(C)=O)[C@H]2C[C@H]2[C@H]2[C@@H]3C[C@H](C)C4=CC(=O)CC[C@@H]4[C@H]3CC[C@@]21C` [Example 8, 17α-ethoxy-15β,16β-methylene-6α-methyl-3,20-dioxo-19-nor-pregna-4-ene], the IC50 in data set [1] (against 2 nM [3H]-ORG 2058, 3 hours at 4°C, mean ± s.e.m.) stood at 0.0211 ± 0.006 µM. The compound further registered an RBA in data set [1] of 78%. In data set [2], the Relative activity is 99% and the ED50 worked out at 0.133 mg/rabbit/5 days.
Regarding `CC(=O)OC1(C(C)=O)C2CC2C2C3C(C)C(C)C4=CC(=O)CCC4C3CCC21C` (stereo not drawn) [Example 10, 17α-acetoxy-6α,7α-dimethyl-15β,16β-methylene-3,20-dioxo-19-nor-pregna-4-ene], in data set [2], the Relative activity is recorded as 22% and the ED50 is reported as 0.600 mg/rabbit/5 days.
In data set [1], `CC(=O)O[C@]1(C(C)=O)[C@H]2C[C@H]2[C@H]2[C@@H]3C=C(C)C4=CC(=O)CC[C@@H]4[C@H]3CC[C@@]21C` [Example 6, 17α-acetoxy-6-methyl-15β,16β-methylene-3,20-dioxo-19-nor-pregna-4,6-diene] registered an IC50 of 0.0211 ± 0.006 µM and an RBA of 78%. Further, in data set [2], the Relative activity is reported as below 18% and the ED50 was above 0.750 mg/rabbit/5 days.
As to `CC(=O)O[C@]1(C(C)=O)C[C@@H](C)[C@H]2[C@@H]3C[C@H](C)C4=CC(=O)CC[C@@H]4[C@H]3CC[C@@]21C` [Example 2, 17α-acetoxy-6α,15β-dimethyl-3,20-dioxo-19-nor-pregna-4-ene], in data set [1], the IC50 is 0.0288 ± 0.0056 µM and the RBA is 57%. Besides, in data set [2], the Relative activity turned out to be 165% and the ED50 is listed as 0.080 mg/rabbit/5 days. In data set [3] (Table 3 experiment, PO, 20 mg/animal/day, castrated controls 10.4 ± 0.4), the “Seminal Vesicle” value was 12.1 ± 0.7 ns mg. In data set [3] (Table 3 experiment, PO, 20 mg/animal/day, castrated controls 14.6 ± 1.4), the “Ventral Prostate” value was determined as 13.0 ± 1.1 ns mg. Also, in data set [3] (PO), the “androgenic potential (activity on the growth of male accessory sex organs)” value was “totally devoid of any activity on the growth of male accessory sex organs”.
In data set [1], `CC(=O)O[C@]1(C(C)=O)C[C@@H](C)[C@H]2[C@@H]3C=C(C)C4=CC(=O)CC[C@@H]4[C@H]3CC[C@@]21C` [Example 1, 17α-acetoxy-6,15β-dimethyl-3,20-dioxo-19-nor-pregna-4,6-diene] yielded an IC50 of 0.038 ± 0.0103 µM and an RBA of 43%. In addition, in data set [2], the Relative activity is reported as below 18% and the ED50 is given as above 0.750 mg/rabbit/5 days.
